In article PMC7708037, “Targeting OGG1 arrests cancer cell proliferation by inducing replication stress” (Nucleic Acids Research, 2020):

Test system: A3 cells
Assay: Annexin V-staining (apoptosis)
Assay type: cell-based, human
Conditions: 72 h
Protocol: The annexin V staining experiment was performed using BD Pharmingen FITC Annexin V Apoptosis Detection Kit I (cat.no 556547) according to the protocol given in the kit. Cells were washed with ice-cold PBS and then washed with 1X Annexin buffer diluted in ice-cold PBS. To the washed pellet of cells, PI and FITC Annexin V dye was added and incubated at room temperature in dark for 15 mins. After the incubation, 400 µl of annexin buffer was added and run in Navios flow cytometer (Beckman Coulter) to detect the apoptosis with blue laser(488 nm, filter 525/40 nm) and dead cells with blue laser(488 nm, filter 620/30 nm). Kaluza Flow Analysis (Beckman Coulter) was used for data analysis.
Figure 4. Anticancer properties overlap between OGG1 loss and OGG1 inhibitors. (A) Viability of T-cell acute […] leukemia cell lines treated for 5 days with the indicated doses TH5487. Data are average ±SD of independent experiments (A3, n = 5; Jurkat, n = 3; MOLT-4, n = 4; CCRF-CEM, n = 3). (B) Relative cell numbers and (C) viability (%) for A3 cells treated for 5 days with 10 μM TH5487. Data are average ±SD of six replicates from three independent experiments. […] Statistical significance was determined using unpaired, two-sided t-tests (*P < 0.05, **P < 0.01, ***P < 0.001, ****P < 0.0001, ns, non-significant).

## O=C(Nc1ccc(I)cc1)N1CCC(n2c(=O)[nH]c3c(Br)cccc32)CC1 [TH5487]
20 μM
  Apoptosis (Annexin V-propidium iodide): more substantial
5 and 10 μM
  Apoptosis (Annexin V-propidium iodide): slight but significant increase in apoptosis
